These are literature values, as cited in patent publication US11730774B2, “Bacterial biofilms and cancer” (THE JOHNS HOPKINS UNIVERSITY, priority 2018, dated 2023).

The data set has as its system bacteria. The conditions noted are these: 6-week-old mice, water containing 500 mg/L cefoxitin for 48 hours; by 24 hours.

In the case of `CO[C@@]1(NC(=O)Cc2cccs2)C(=O)N2C(C(=O)O)=C(COC(N)=O)CS[C@@H]21` [Cefoxitin], the “detectable bacteria by culture or 16S rRNA qPCR” value was “absence of detectable bacteria”.
